Data from patent US7320996B2, “Indolinone protein kinase inhibitors and cyclooxygenase inhibitors for use in combination therapy for the treatment of cancer” (Sugen, Inc, priority 2001, dated 2008).
Where “and” joins values, the source holds several entries; their conditions need not be identical. Equal entries are not always repeated. Where two headings read alike, the source gives them in different places.

Tests used:
c-kit = target: T1, c-kit (Homo sapiens, UniProt P10721); assay: SCF-stimulated c-kit phosphorylation in AML blasts of patients; format: cell-based; conditions: AML blasts from peripheral blood of patients
T1 construct: was determined using MO7E cells that express this receptor; endogenous in cells; host or cells: MO7E
T1 sequence (P10721 26-976): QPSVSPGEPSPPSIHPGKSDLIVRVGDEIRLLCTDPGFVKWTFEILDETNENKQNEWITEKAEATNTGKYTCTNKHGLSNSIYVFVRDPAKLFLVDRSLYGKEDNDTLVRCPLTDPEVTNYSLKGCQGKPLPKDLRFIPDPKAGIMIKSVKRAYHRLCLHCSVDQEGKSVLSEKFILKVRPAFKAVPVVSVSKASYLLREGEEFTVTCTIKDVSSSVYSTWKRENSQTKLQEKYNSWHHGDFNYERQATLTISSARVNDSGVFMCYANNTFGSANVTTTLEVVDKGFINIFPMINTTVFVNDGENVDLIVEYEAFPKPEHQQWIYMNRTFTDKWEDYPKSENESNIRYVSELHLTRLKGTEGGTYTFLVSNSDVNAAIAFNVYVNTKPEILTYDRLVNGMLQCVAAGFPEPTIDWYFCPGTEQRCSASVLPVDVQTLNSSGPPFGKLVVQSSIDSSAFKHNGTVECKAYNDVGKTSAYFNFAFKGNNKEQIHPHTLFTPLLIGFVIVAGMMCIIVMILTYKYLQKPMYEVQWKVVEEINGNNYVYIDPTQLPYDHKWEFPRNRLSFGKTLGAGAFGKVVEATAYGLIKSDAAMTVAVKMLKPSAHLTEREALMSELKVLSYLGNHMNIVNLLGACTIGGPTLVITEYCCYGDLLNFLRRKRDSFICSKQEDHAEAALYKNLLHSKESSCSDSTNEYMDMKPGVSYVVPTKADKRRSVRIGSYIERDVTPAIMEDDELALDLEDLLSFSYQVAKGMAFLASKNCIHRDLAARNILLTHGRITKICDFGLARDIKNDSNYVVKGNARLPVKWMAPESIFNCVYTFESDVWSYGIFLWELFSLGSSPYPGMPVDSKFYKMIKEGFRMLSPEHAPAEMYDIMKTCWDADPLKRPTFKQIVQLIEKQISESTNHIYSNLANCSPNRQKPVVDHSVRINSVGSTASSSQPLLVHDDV

HUVECs = assay: VEGF-mediated HUVEC survival (PARP cleavage); format: cell-based, human; conditions: PARP cleavage as readout for apoptosis
Excerpt: In these experiments, cleavage of the caspase 3 substrate poly-ADP-ribosyl polymerase (PARP) was used as a readout for apoptosis.

SF763T tumors = assay: SF763T subcutaneous xenograft; format: in vivo, athymic mice
B16-F1 cells = assay: B16-F1 mouse melanoma lung colonization model; format: in vivo, athymic mice; conditions: 80 mg/kg/day oral for 24 days; P <0.001
Excerpt: In addition to supporting the sustained growth of solid primary tumors, angiogenesis is also an essential component supporting the development of disseminated disease due to metastasis from the primary tumor. […] In this model, B16-F1 cells inoculated intravenously via the tail vein of athymic mice colonize the lungs and form tumors. […] .
Briefly, the results shown in Table 8 were obtained using athymic mice that had been inoculated with B16-F1 tumor cells (5×10^5 cells/mouse) via the tail vein. […] . At the end of the treatment period, the mice were sacrificed and their lungs removed and weighed. […] .

HT29 cells = assay: cells; conditions: Homo sapiens, HT-29
A549 cells = assay: cells; conditions: Homo sapiens
NCI-H460 cells = assay: cells; conditions: Homo sapiens
SF767T cells = assay: cells; conditions: Homo sapiens
Colo205 tumors = assay: Colo205 subcutaneous xenograft
NCI-H460 tumors = assay: NCI-H460 subcutaneous xenograft

`CCN(CC)CCNC(=O)c1c(C)[nH]c(/C=C2\C(=O)Nc3ccc(F)cc32)c1C` [Compound 80] was tested, and the SCF-stimulated c-kit phosphorylation (c-kit) was “inhibited”, the “effect on VEGF-mediated HUVEC survival” value (HUVECs) was “inhibited VEGF-mediated HUVEC survival in a dose-dependent manner” and the “tumor response to treatment” value (SF763T tumors; 80 mg/kg/day oral) was “arrested or greatly slowed”. For the same compound, the “% Inhibition” value (SF763T tumors; initial tumor volume 550 mm^3, 80 mg/kg once daily oral, day 30, P 0.001) was 53 (30) %, the “PDGFRβ tyrosine phosphorylation in established tumors” value (SF763T tumors; oral administration) was “strongly inhibited” and the “levels of phosphorylated (activated) phospholipase C gamma (PLC-γ) in tumors” value (SF763T tumors; oral administration) was “reduced”. For the same compound, the “% Inhibition (lung weight)” value (B16-F1 cells) was 50%, the “tumor response to treatment” value (A431 tumors; 80 mg/kg/day oral) was “regressed” and the “efficacy against established A431 tumors versus 80 mg/kg/day dose” value (A431 tumors; 160 mg/kg/day, preliminary experiments) was “not more efficacious”. For the same compound, the “complete regression of the tumors” value (A431 tumors; initial 100 mm^3, 80 mg/kg/day for 21 days) was “six of the eight animals”, the “% Inhibition of tumor growth” value (A431 tumors; initial tumor volume 100 mm^3, 10 mg/kg/day oral, day 40, P 0.059) was 61 (40) % and the “% Inhibition of tumor growth” value (A431 tumors; initial tumor volume 100 mm^3, 40 mg/kg/day oral, day 40, P 0.015) was 75 (40) %. The “% Inhibition of tumor growth” value (A431 tumors; initial tumor volume 100 mm^3, 80 mg/kg/day oral, day 40, P 0.002) was 93 (40) %, the “% Inhibition of tumor growth” value (A431 tumors; initial tumor volume 400 mm^3, 20 mg/kg/day oral, day 36, P 0.130) was 51 (36) % and the “% Inhibition of tumor growth” value (A431 tumors; initial tumor volume 400 mm^3, 40 mg/kg/day oral, day 36, P 0.003) was 74% and 74 (36) %. The “% Inhibition of tumor growth” value (A431 tumors; initial tumor volume 400 mm^3, 80 mg/kg/day oral, day 36, P 0.001) was 84% and 84 (36) %, the “tumor regrowth after end of treatment” value (A431 tumors; the six animals with complete regression) was “did not regrow during a 110-day observation period” and the “response of regrown tumors to a second round of treatment” value (A431 tumors; two animals with tumors regrown to 2000-3000 mm^3) was “regressed”. The IC50 (HT29 cells) was 10 µM, the IC50 (A549 cells) was 9.5 µM and the IC50 (NCI-H460 cells) was 8.9 µM. The IC50 (SF767T cells) was 7.9 µM, the “% Inhibition” value (Colo205 tumors; 40 mg/kg daily oral, tumors 400 mm^3 at start, P 0.028) was 84% and the “% Inhibition” value (Colo205 tumors; 40 mg/kg twice weekly oral, tumors 400 mm^3 at start, NS) was 36%. For the same compound, the “% Inhibition” value (Colo205 tumors; 80 mg/kg daily oral, tumors 400 mm^3 at start, P 0.039) was 91%, the “% Inhibition” value (Colo205 tumors; 80 mg/kg once weekly oral, tumors 400 mm^3 at start, NS) was 0% and the “% Inhibition” value (Colo205 tumors; 80 mg/kg twice weekly oral, tumors 400 mm^3 at start, NS) was 19%. The “tumor response to treatment” value (Colo205 tumors; 80 mg/kg/day oral) was “regressed”, the “% Inhibition” value (Colo205 tumors; 160 mg/kg once weekly oral, tumors 400 mm^3 at start, NS) was 17% and the “% Inhibition” value (Colo205 tumors; 160 mg/kg twice weekly oral, tumors 400 mm^3 at start, P 0.085) was 52%. The “% Inhibition” value (Colo205 tumors; initial tumor volume 370 mm^3, 80 mg/kg once daily oral, day 54, P 0.028) was 77 (54) %, the “tumor response to treatment” value (NCI-H460 tumors; 80 mg/kg/day oral) was “arrested or greatly slowed” and the “% Inhibition” value (NCI-H460 tumors; initial tumor volume 300 mm^3, 80 mg/kg once daily oral, day 54, P 0.003) was 61 (54) %.
